This data set is described as follows: Human HepG2 cell viability assay in 384 well format. It counts as toxicity, cell-based. Also noted: dose 125 nL, time 70.5 hour; cytotoxicity at 70.5 h: concentration not given beside the values. Particulars: HepG2 cells, read-out: Inhibition.
`CC(=O)N1Cc2ccccc2C[C@H]1C(=O)N(C)CCc1ccccn1`: the cytotoxicity at 70.5 h was 19.3%.
On to `O=C(C1CCS(=O)(=O)C1)N1CCC(=Cc2cccc(F)c2)CC1` (stereo not given), for which the cytotoxicity at 70.5 h is -9.56%.
Consider `CCC(C)(O)CNC(=O)Nc1ccc(C)cc1Br` (stereo not given), for which the cytotoxicity at 70.5 h is -5.82%.
Turning to `N#Cc1cccc(CS(=O)(=O)NC(Cc2ccccc2)C(N)=O)c1` (stereo not given), the cytotoxicity at 70.5 h was -13.1%.
In the case of `CCn1cc(C(=O)N(C)Cc2c(F)cccc2Cl)cn1`, the cytotoxicity at 70.5 h was -2.9%.
Next, `Cc1nc(-c2ccc(S(=O)(=O)N3CCSC3)cc2)co1`: -10.2%; `COc1ccc(S(=O)(=O)NC(=O)c2cscn2)cc1C`: -13.6%; `CN1CCCC(N(C)C(=O)c2ccc(NC(=O)c3cc[nH]n3)cc2)C1` (stereo not given): -0.159%.
In the case of `CC(CNC(=O)CCc1ccccn1)c1ccsc1` (stereo not given), the cytotoxicity at 70.5 h was -16.6%.
On to `Cc1ccc(C(=O)N2CCOCC2)cc1NCc1ccsc1`, for which the cytotoxicity at 70.5 h is -12.3%.
Next, `Cc1ccc(C2CN(C(=O)NCc3nnc4ccccn34)CCO2)o1` (stereo not given): -10.6%; `N#Cc1ccc(N2CCC(OC3CCOCC3)CC2)cc1Cl`: 1.95%; `COc1ccc(Br)cc1CN(C)C(C)c1nc(C)no1` (stereo not given): -20.1%.
Next, `CCN(CC)CCCC(C)NC(=O)c1ccccc1-n1cccn1` (stereo not given): -9.46%; `CC(C)COc1ccccc1C(N)CC(C)C` (stereo not given): -10.1%.
For the compound `CC(O)C1CCN(c2cc(Cl)ccc2C#N)CC1` (stereo not given), the cytotoxicity at 70.5 h is -14.2%.
In the case of `CCOCCC(=O)NCC(C)c1ccsc1` (stereo not given), the cytotoxicity at 70.5 h was -5.93%.
On to `N#CCCN(Cc1ccco1)C(=O)CCCc1ccccc1`, for which the cytotoxicity at 70.5 h is -4.22%.
`CC(=O)N1CCC(C(=O)N2CCC(=Cc3cccc(F)c3)CC2)CC1`: the cytotoxicity at 70.5 h was -11.3%.
With `CCNC(=O)CS(=O)(=O)NC1CCC(C)CC1` (stereo not given), the cytotoxicity at 70.5 h is -14.8%.
For `NC(=O)c1cnn2c1NCC(CNC1(c3ccccc3)CCC1)C2` (stereo not given), the cytotoxicity at 70.5 h is -9.04%.
As to `c1ncc2c(n1)CN(c1ncnc3[nH]ccc13)CC2`, the cytotoxicity at 70.5 h is -4.47%.
Consider `Cc1cccc(C(=O)NC(C(=O)NCc2ccc(O)nc2)C(C)C)c1` (stereo not given), for which the cytotoxicity at 70.5 h was -10.8%.
Regarding `Cc1nc(CCCNC(=O)Nc2ccc(F)cc2F)n[nH]1`, the cytotoxicity at 70.5 h was -6.94%.
For the compound `CC(CCc1ccc(F)c(F)c1)NS(=O)(=O)Cc1ccon1` (stereo not given), the cytotoxicity at 70.5 h turned out to be 20.5%.
On to `CCNC(=O)NC(c1ccc(C)cc1)c1cccc(S(C)(=O)=O)c1` (stereo not given), for which the cytotoxicity at 70.5 h was -11%.
Consider `Cc1ccc(OCC(C)NS(=O)(=O)Cc2ccon2)cc1` (stereo not given), for which the cytotoxicity at 70.5 h was -9.91%.
Next, `CC(C)N(C(=O)Cn1nc2n(c1=O)CCCCC2)C1CCC1`: -9.98%.
Next, `NC(=O)CCC1CCCN(c2ccc3ccc(F)cc3n2)C1` (stereo not given): -3.15%.
Turning to `Cc1ccn(CC(=O)NCCCOc2ccccc2F)c(=O)c1`, the cytotoxicity at 70.5 h was -7.65%.
In the case of `Cc1nn(C)c(C)c1C(=O)NC(C)CC(=O)c1cccs1` (stereo not given), the cytotoxicity at 70.5 h is -11.1%.
`Cc1c(C(=O)NC(C)CC(=O)c2cccs2)cnn1C` (stereo not given): the cytotoxicity at 70.5 h worked out at 19.6%.
In the case of `CC(c1cccnc1)N(C)C(=O)NCCOc1ccc(C#N)cc1` (stereo not given), the cytotoxicity at 70.5 h was -11.1%.
Next, `CC(C)CC(NCc1ccsc1)c1ccccn1` (stereo not given): 22.4%; `CC(C)CC(NCc1cscn1)c1ccccn1` (stereo not given): -7.87%.
In the case of `N#Cc1ccccc1CN1CCC(CN2CCOCC2)C1` (stereo not given), the cytotoxicity at 70.5 h was -5.31%.
Turning to `Nc1nccnc1C(=O)NC1CCN(Cc2ccccc2)C1` (stereo not given), the cytotoxicity at 70.5 h is -10.2%.
Turning to `O=C(CCc1nnc(-c2ccsc2)o1)NCC1CCN(C2CC2)C1` (stereo not given), the cytotoxicity at 70.5 h is -4.06%.
For the compound `O=C(CCc1nc(-c2cccnc2)no1)NCC1CCN(C2CC2)C1` (stereo not given), the cytotoxicity at 70.5 h is -17.6%.
Turning to `Cc1nnc(CN(Cc2cccc3c2OCO3)CC2CCCO2)n1C` (stereo not given), the cytotoxicity at 70.5 h was -19.6%.
Turning to `O=C(Cn1cnc2ccsc2c1=O)c1ccc2c(c1)OCCO2`, the cytotoxicity at 70.5 h is -8.67%.
As for `NC(=O)CN(Cc1ncc(-c2ccc(F)cc2)o1)C1CCCC1`, the cytotoxicity at 70.5 h was -14.2%.
In the case of `Cc1cccnc1NC(=O)c1ccc(F)c(S(=O)(=O)NC2CC2)c1` it was -2.44%; in that of `O=C(NCc1ccnc(OCC2CC2)c1)C1COc2ccccc2O1` (stereo not given), 0.151%; in that of `CCc1cc(NCCCc2nc(C)no2)nc(-c2ccncc2)n1`, -5.75%.
In the case of `NC(=O)CC1CCN(Cc2ccccc2OCC(F)(F)F)CC1`, the cytotoxicity at 70.5 h is -8.22%.
Take `CCOc1cc(NC(=O)N2CCC3(CCOCC3)C2)ccc1C`: the cytotoxicity at 70.5 h is -7.4%.
In the case of `CCc1cc(NCCCNS(C)(=O)=O)nc(-c2ccncc2)n1` it was -9.08%; in that of `CC(C)N(C)C(=O)C1CCN(Cc2cnc3ccccn23)CC1`, -5.16%.
With `Cc1csc(CCNC(=O)N2CCC(NC(=O)OC(C)(C)C)CC2)n1`, the cytotoxicity at 70.5 h was -11.5%.
In the case of `Cc1csc(CCNC(=O)N2CCC(n3cccc3)CC2)n1` it was -7.68%.
As for `N#CC1(NC(=O)c2cc(Cl)ccc2OC(F)F)CCOCC1`, the cytotoxicity at 70.5 h was -17.7%.
For `CN(C(=O)C1CCN(Cc2cnc3ccccn23)CC1)c1ccccc1`, the cytotoxicity at 70.5 h was -7.69%.
For the compound `COc1ncc(NCc2ccc(C#N)cc2)cc1C(N)=O`, the cytotoxicity at 70.5 h is -4.6%.
With `CN(CC(O)C(F)(F)F)C(=O)Nc1cccc(Cn2cccn2)c1` (stereo not given), the cytotoxicity at 70.5 h was -6.9%.
As for `COc1ncc(NCc2cc(C#N)cs2)cc1C(N)=O`, the cytotoxicity at 70.5 h is -5.52%.
Next, `COc1ncc(NCc2ccc(F)cc2)cc1C(N)=O`: -6.54%; `CN(CC(O)C(F)(F)F)C(=O)Nc1cccc(N2CCCC2)c1` (stereo not given): -3.73%.
Take `O=C(NCCc1nccs1)N1CCC(n2cccc2)CC1`: the cytotoxicity at 70.5 h is -9.14%.
In the case of `NCC(CO)Cc1cccc(OC(F)(F)F)c1` (stereo not given) it was 2.39%; in that of `NCC(CO)Cc1ccc(OC(F)(F)F)cc1` (stereo not given), -5.55%.
Turning to `CN(C)c1cc(CNC(=O)C2COc3ccccc3O2)ccn1` (stereo not given), the cytotoxicity at 70.5 h was -6.63%.
As for `CN(C(=O)c1ccc(Cl)cn1)c1ccccc1S(C)(=O)=O`, the cytotoxicity at 70.5 h is -5.72%.
As for `Cc1oncc1NS(=O)(=O)c1c[nH]c2ncccc12`, the cytotoxicity at 70.5 h is -3.88%.
Take `CCN(CC)CCSc1ncnc2[nH]ncc12`: the cytotoxicity at 70.5 h came out at 1.79%.
Next, `CC(C)(C)C(=O)NCCNCc1ccc(Cl)c2cccnc12`: -0.239%.
As for `CCOc1ccccc1N(C)C(=O)c1cscn1`, the cytotoxicity at 70.5 h turned out to be 0.806%.
As to `CCCN1Cc2ccccc2CC1C(=O)NC` (stereo not given), the cytotoxicity at 70.5 h was -0.114%.
Next, `CC(C)COc1cncc(NCC(O)c2ccco2)n1` (stereo not given): 33.1%.
As to `Cc1nn(C)c(C)c1OCC(=O)NCC(O)c1ccccc1F` (stereo not given), the cytotoxicity at 70.5 h stood at 0.771%.
With `CNC(=O)C1Cc2ccccc2CN1CCCc1ccccc1` (stereo not given), the cytotoxicity at 70.5 h is -4.46%.
Next, `COc1ccc(C#N)cc1CSCCN1CCOCC1`: -9.88%; `N#Cc1ccc(CSCCN2CCOCC2)cc1`: -5.15%; `N#Cc1ccc(F)c(CSCCN2CCOCC2)c1`: -7.03%.
In the case of `Cc1nc(C)n(CC2CCCCN2CCCC#N)n1` (stereo not given), the cytotoxicity at 70.5 h stood at 6.75%.
As to `c1ccc(CCN2CCCC(c3noc(C4CC4)n3)C2)cc1` (stereo not given), the cytotoxicity at 70.5 h was -5.63%.
As for `CC(=O)N1CCC(C(=O)Nc2nc(C3CC3)cs2)CC1`, the cytotoxicity at 70.5 h is -4.64%.
In the case of `Cc1cc(Br)oc1C(=O)N1CCCN(CC(N)=O)CC1`, the cytotoxicity at 70.5 h was -7.35%.
Consider `CCN(CC)C(C)CNC(=O)c1cccnc1Oc1cccnc1` (stereo not given), for which the cytotoxicity at 70.5 h is -5.14%.
Turning to `COc1ccc(C(CO)NC(=O)Nc2cccc(C(C)=O)c2)cc1` (stereo not given), the cytotoxicity at 70.5 h is -6.17%.
In the case of `COc1cc(C)nc(N2CCN(C(=O)CCc3ccsc3)CC2)n1` it was -4.26%; in that of `CCN1CCC(NC(=O)CN2CCCCC2Cn2cccn2)CC1` (stereo not given), -4.33%; in that of `NC(=O)CCn1ccc(NC(=O)c2ccc(Br)o2)n1`, -5.23%.
Take `Cc1ccc(-c2nc(CN3CCOC(Cn4cncn4)C3)cs2)o1` (stereo not given): the cytotoxicity at 70.5 h was -6.85%.
For `CNC(=O)CCN1CCN(C(C)c2ccc(Cl)cc2)CC1` (stereo not given), the cytotoxicity at 70.5 h is -6.21%.
Next, `Cc1ccc(CNCCS(=O)(=O)N2CCOCC2)cc1C`: -6.06%; `CC(c1ccc(Cl)cc1)N1CCN(CCCS(N)(=O)=O)CC1` (stereo not given): 35.8%.
On to `Cn1cc(C(=O)NCc2ccc(N3CCNC(=O)C3)c(F)c2)cn1`, for which the cytotoxicity at 70.5 h was -4.04%.
Next, `Cc1nc(C)n(CC2CCCCN2CCCS(N)(=O)=O)n1` (stereo not given): -5.16%; `Cc1cc(C)n(CC2CCCCN2CCCS(=O)(=O)N(C)C)n1` (stereo not given): 1.93%; `CCOC(C)c1nc(CN2CCN(CC(F)F)CC2)cs1` (stereo not given): -5.97%.
Turning to `N#Cc1cccc(OCCN2CCCC(c3noc(C4CC4)n3)C2)c1` (stereo not given), the cytotoxicity at 70.5 h is -5.39%.
For `Cc1cccc(NC(=O)NCC2(N3CCOCC3)CCSC2)c1` (stereo not given), the cytotoxicity at 70.5 h came out at 3.35%.
With `CC1CCN(CCNC(=O)Nc2ccc(F)cc2Cl)CC1`, the cytotoxicity at 70.5 h stood at 9.06%.
For the compound `CCC(CNC(=O)c1ccc(F)cc1F)N1CCc2ccccc2C1` (stereo not given), the cytotoxicity at 70.5 h is -7.79%.
On to `CCC(CNC(=O)c1cncc(Br)c1)N1CCc2ccccc2C1` (stereo not given), for which the cytotoxicity at 70.5 h is -5.93%.
`Cc1csc(CNC(=O)NCC(O)c2ccc(F)cc2F)n1` (stereo not given): the cytotoxicity at 70.5 h stood at 5.96%.
Turning to `Cc1csc(CNC(=O)NCC(O)c2ccc(F)c(F)c2)n1` (stereo not given), the cytotoxicity at 70.5 h worked out at 10.8%.
`O=C(NCC1(N2CCOCC2)CCSC1)Nc1cn[nH]c1` (stereo not given): the cytotoxicity at 70.5 h is -10.2%.
`Cc1nc(CCNC(=O)NCC(O)c2cccc(Cl)c2)cs1` (stereo not given): the cytotoxicity at 70.5 h is -7.03%.
Next, `CCN(Cc1ccco1)C(=O)NCc1nnc2n1CCCCC2`: 5.47%.
In the case of `O=C(CN1C(=O)c2ccccc2CS1(=O)=O)c1ccccc1` it was -6.1%; in that of `CC(=O)c1cccc(OCCCC(=O)N(C)CC(N)=O)c1`, -7.52%.
Regarding `Cc1cc(S(=O)(=O)N2CCCN3CCCC3C2)ccc1F` (stereo not given), the cytotoxicity at 70.5 h was -9.81%.
With `NC1CCN(C(=O)c2c(F)cccc2Br)CC1`, the cytotoxicity at 70.5 h is -15.6%.

Values taken from ChEMBL document CHEMBL3507680, “University of Dundee, Gates Library screen for HepG2 cell viability”.
